Like-named read-outs stand apart in the source and are kept apart here.
How the values were obtained:
BTK C481S = BTK C481S (Homo sapiens, UniProt Q06187, C481S); test: BTK degradation (Total BTK HTRF) in TMD8 cells expressing BTK-C481S; format: cell-based; parameters: endogenous in cells; host or cells: TMD8 BTK-C481S (clone2C3), Cas9 RNP knock-in; conditions: TMD8 BTK-C481S (clone2C3) cells, treatment time 4 h
Procedure: BTK levels were determined using Cisbio Total-BTK HTRF (Homologous Time-Resolved Fluorescence) kit (63ADK064PEG) according to the manufacturer's protocol. Briefly, cells were incubated in 1× supplied lysis buffer for 30 minutes. In an opaque white low volume 96-well plate (Cisbio, 66PL96005), cell lysate was combined with two different specific BTK antibodies, one conjugated with Eu^3+-Cryptate FRET donor and one conjugated with d2 FRET acceptor. Assay controls include wells containing cell lysate with only the Eu^3+-Cryptate FRET donor antibody and wells containing both HTRF antibodies and lysis buffer without cells or control lysate provided by Cisbio. HTRF ratio was calculated as (acceptor signal at 665 nm/donor signal at 620 nm)×10^4. Background HTRF levels were determined from the control well containing the donor, but no acceptor, antibody. Background HTRF levels were subtracted from all samples. Readouts were reported as HTRF levels relative to HTRF levels of DMSO-treated cells. Four-parameter non-linear regressions were performed in GraphPad Prism 7.02 to obtain DC50 values.
BTK Degradation (Total BTK HTRF) at Four Hours in TMD8 Cells Expressing BTK-C481S
This example evaluates the potency of CTM in degrading […]. The BTK binding moieties utilized in CTMs bind to the BTK active site. This example evaluates whether the active site mutation C481S affects CTM-induced degradation of BTK.

TMD8 C481S cells = test: Cell viability assay (CellTiter-Glo), TMD8 C481S cells; conditions: for EC50: Homo sapiens, TMD8, 72 h; for EMAX (% viable cells): TMD8 C481S cells, treatment time 72 h
TMD8 cells = test: Cell viability assay (CellTiter-Glo), TMD8 cells; conditions: for EC50: Homo sapiens, TMD8, 72 h; for EMAX (% viable cells): TMD8 cells, treatment time 72 h
Procedure: Cell viability was determined using CellTiter-Glo 2.0 Luminescent Cell Viability Assay (Promega, G9242), which quantitates the amount of ATP present as a proxy for the number of viable cells in culture. Cells were plated with densities between 2000-4000 cells per well in 96-well plates. […] CellTiter-Glo reagent was added to cells at a dilution of 1:20, and the plate was incubated ten minutes at room temperature prior to reading the luminescence signal using an EnVision plate reader. Controls included cells treated with DMSO and wells that contained no cells, only media. Background luminescence signal was determined by control wells containing no cells, only media, and was then subtracted from all sample wells. Luminescence values were then normalized to DMSO-treated wells and reported at proportion viable cells.
Here, the ability of CTMs to affect viability in BTK-dependent cell lines was assessed.

BTK = molecular target: T1, BTK (Mus musculus, UniProt P35991); test: In vivo degradation of BTK in mouse PD experiments with oral dosing
T1 construct: from tissue; host or cells: mouse blood B cells / splenocytes (CD-1 or BALB/c)
In short: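 CD-1 or BALB/c mice dosed by oral gavage, screens at 90 mg/kg for 6 h, later at lower doses/longer times. Blood or splenocyte BTK measured by intracellular flow cytometry (or HTRF); % degradation from B-cell minus T-cell BTK geometric MFI, relative to vehicle.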

[1] = system: B cell receptor (BCR) signaling; test: B cell activation assay (flow cytometry), mouse B cells; format: cell-based; conditions: treatment 4 h, IgM stimulation 18 h
Procedure: Compound was present throughout the stimulation. Cells were stained with Live/Dead dye (Fisher L34976) and then fluorophore-conjugated antibodies against CD20 (Biolegend 302330), CD3 (BD Pharmingen 557705), CD86 (Biolegend 305416) and CD69 (Biolegend 310906). Stained cells were fixed in PFA and run on an Attune N×T Acoustic Focusing Flow Cytometer (Thermo-Fisher A29004), and data was analyzed using FlowJo (v10.5.3) and GraphPad Prism (v7.00) software. Single live lymphocytes were gated for B cells (CD20+CD3−) and T cells (CD3+CD20−), and the geometric mean fluorescence intensity (MFI) of CD86 and CD69 was calculated for each population. The MFI of the unstimulated sample was used to quantify baseline activation.
This example evaluates whether CTM treatment affects B cell receptor (BCR) signaling. BTK is activated downstream of the B cell receptor and leads to upregulation of activation markers CD86 and CD69 on the surface of B cells.

[2] = PK data for BTK CTMs (in vivo plasma concentrations); conditions: Mouse Balb/c; for Vd: read-out: Volume of Distribution
Text: The present example evaluates in vivo plasma concentrations of BTK CTMs to develop PK-PD-efficacy relationship and predict human exposure.

primary human T cells [3] = test: T cell activation assay, CD25 and CD69 staining (flow cytometry); format: cell-based; conditions: fold-change of response relative to baseline
Procedure: (§1) This example evaluates whether CTMs with IMiD activity affect T cell activation. […] These assays were performed to assess whether BTK CTMs with and without IMiD activity affected activation of primary human T cells after stimulation of the T cell receptor with anti-CD3/ati-CD28 stimulation. T cell activation was measured by IL-2 secretion (ELISA assay) and upregulation of activation markers CD25 and CD69 on the surface of T cells (flow cytometry). Data are presented as the fold-change of response relative to baseline (stimulation with anti-CD3/anti-CD28 stimulation in the absence of compound).

primary human T cells [4] = test: T cell activation assay, IL-2 secretion (ELISA); format: cell-based
Procedure: as §1

[5] = oral dose 30 mg/kg, 24 h, splenocytes, HTRF
[6] = 1.4 nM, fold-change of response relative to baseline
[7] = 37 nM, fold-change of response relative to baseline
[8] = 333 nM, fold-change of response relative to baseline (stimulation without compound)
[9] = oral dose 30 mg/kg, 24 h, blood, flow cytometry

SMILES	DC50 (BTK C481S) [nM]	EC50 (TMD8 C481S cells) [nM]	EMAX (% viable cells) (TMD8 C481S cells) [%]	EC50 (TMD8 cells) [nM]	EMAX (% viable cells) (TMD8 cells) [%]	% BTK Remaining (BTK; [5]) [%]	also measured
CN1CCN([C@@H]2CCCN(c3cnc(C(N)=O)c(Nc4ccc(C5CCN(C6CN(Cc7ccc8c(c7)C(=O)N(C7CCC(=O)NC7=O)C8=O)C6)CC5)cc4)n3)C2)C1=O (stereo partly shown) [Compound 101]	4.3	431	27	93.4	27	–	–
CN1CCN([C@@H]2CCCN(c3cnc(C(N)=O)c(Nc4ccc(C5CCN(CC6CCN(c7ccc(NC8CCC(=O)NC8=O)nc7)CC6)CC5)cc4)n3)C2)C1=O (stereo partly shown) [Compound 166]	8.1	–	–	–	–	19	–
NC(=O)c1ncc(N2CCC[C@@H](N3CCOC3=O)C2)nc1Nc1ccc(C2CCN(C[C@H]3CCN(c4ccc5c(c4)C(=O)N(C4CCC(=O)NC4=O)C5=O)C3)CC2)cc1 (stereo partly shown) [Compound 73]	1.2	0.054	19	0.004	25	26	EC50 ([1]; read-out: CD69 EC50): ~0.2 nM; EC50 ([1]; read-out: CD86 EC50): 0.2 nM; AUC ([2]; 1 mg/kg IV): 0.6 µM·h; clearance ([2]; 1 mg/kg IV): 33.8 mL/min/kg; Vd ([2]; 1 mg/kg IV): 3.4 L/kg; AUC ([2]; 10 mg/kg PO): 2.9 µM·h; bioavailability ([2]; 10 mg/kg PO): 47%
NC(=O)c1ncc(N2CCC[C@H](N3CCOC3=O)C2)nc1Nc1ccc(N2CCC(C3CN(c4ccc5c(c4)C(=O)N(C4CCC(=O)NC4=O)C5=O)C3)CC2)cc1 (stereo partly shown) [Compound 70]	3.1	–	–	–	–	42	–
CN1CCN([C@H]2CCCN(c3cnc(C(N)=O)c(Nc4cnn(C5CCN(CC6CN(c7ccc8c(c7)C(=O)N(C7CCC(=O)NC7=O)C8=O)C6)CC5)c4)n3)C2)C1=O (stereo partly shown) [Compound 78]	–	7.19	37	9.04	41	–	% BTK Remaining (BTK; oral dose 3 mg/kg, 6 h, blood, flow cytometry): 74%; CD25 Staining Anti-CD3/Anti-CD28 Stimulation (primary human T cells [3]; 1.4 nM): 0.99; CD69 Staining Anti-CD3/Anti-CD28 Stimulation (primary human T cells [3]; 1.4 nM): 1.00; CD25 Staining Anti-CD3/Anti-CD28 Stimulation (primary human T cells [3]; 37 nM): 0.73; CD69 Staining Anti-CD3/Anti-CD28 Stimulation (primary human T cells [3]; 37 nM): 0.66; CD25 Staining Anti-CD3/Anti-CD28 Stimulation (primary human T cells [3]; 333 nM): 0.44; CD69 Staining Anti-CD3/Anti-CD28 Stimulation (primary human T cells [3]; 333 nM): 0.43; IL-2 Secretion Anti-CD3/Anti-CD28 Stimulation (primary human T cells [4]; [6]): 1.00; IL-2 Secretion Anti-CD3/Anti-CD28 Stimulation (primary human T cells [4]; [7]): 1.17; IL-2 Secretion Anti-CD3/Anti-CD28 Stimulation (primary human T cells [4]; [8]): 1.20
CN1CCN([C@H]2CCCN(c3cnc(C(N)=O)c(Nc4ccc(C5CCN(CC6CCN(c7ccc(NC8CCC(=O)NC8=O)cn7)CC6)CC5)cc4)n3)C2)C1=O (stereo partly shown) [Compound 129]	5.3	4.36	14	3.17	16	–	% BTK Remaining (BTK; [9]): 16%
NC(=O)c1ncc(N2CCCCC2)nc1Nc1ccc(C2CCN(CC3CCN(c4ccc5c(=O)n(C6CCC(=O)NC6=O)ccc5c4)CC3)CC2)cc1 (stereo not shown) [Compound 133]	8.3	6.83	9	6.98	15	–	% BTK Remaining (BTK; [9]): 10%
O=C(c1ccc(Oc2ccccc2)cc1Cl)c1c[nH]c2ncnc(N[C@@H]3CC[C@@H](CO)OC3)c12 [ARQ531]	–	100	17	100	16	–	EC50 ([1]; read-out: CD69 EC50): 50 nM; EC50 ([1]; read-out: CD86 EC50): 70 nM
CN1CCN([C@@H]2CCCN(c3cnc(C(N)=O)c(Nc4ccc(C5CCN(CC6CCN(c7ccc8c(c7)C(=O)N(C7CCC(=O)NC7=O)C8=O)CC6)CC5)cc4)n3)C2)C1=O (stereo partly shown) [Compound 51]	–	1.95	49	0.32	20	–	% BTK Remaining (BTK; oral dose 90 mg/kg, 6 h, splenocytes, HTRF): 2%; CD25 Staining Anti-CD3/Anti-CD28 Stimulation (primary human T cells [3]; 1.4 nM): 0.86; CD69 Staining Anti-CD3/Anti-CD28 Stimulation (primary human T cells [3]; 1.4 nM): 0.91; CD25 Staining Anti-CD3/Anti-CD28 Stimulation (primary human T cells [3]; 37 nM): 0.62; CD69 Staining Anti-CD3/Anti-CD28 Stimulation (primary human T cells [3]; 37 nM): 0.62; CD25 Staining Anti-CD3/Anti-CD28 Stimulation (primary human T cells [3]; 333 nM): 0.38; CD69 Staining Anti-CD3/Anti-CD28 Stimulation (primary human T cells [3]; 333 nM): 0.39; IL-2 Secretion Anti-CD3/Anti-CD28 Stimulation (primary human T cells [4]; [6]): 1.19; IL-2 Secretion Anti-CD3/Anti-CD28 Stimulation (primary human T cells [4]; [7]): 1.99; IL-2 Secretion Anti-CD3/Anti-CD28 Stimulation (primary human T cells [4]; [8]): 2.12
NC(=O)c1ncc(N2CCCCC2)nc1Nc1ccc(C2CCN(CC3CCN(c4ccc(C(=O)NC5CCC(=O)NC5=O)nc4)CC3)CC2)cc1 (stereo not shown) [Compound 182]	14.5	–	–	–	–	12	–
CN1CCN([C@@H]2CCCN(c3cnc(C(N)=O)c(Nc4ccc(C5CCN(CC6CCN(c7ccc8c(c7)n(C)c(=O)n8C7CCC(=O)NC7=O)CC6)CC5)cc4)n3)C2)C1=O (stereo partly shown) [Compound 156]	0.4	–	–	–	–	–	–
CN1CCN([C@@H]2CCCN(c3cnc(C(N)=O)c(Nc4ccc(C5(C)CCN(C[C@H]6CCN(c7ccc8c(c7)C(=O)N(C7CCC(=O)NC7=O)C8=O)C6)CC5)cc4)n3)C2)C1=O (stereo partly shown) [Compound 71]	–	–	–	–	–	27	EC50 ([1]; read-out: CD69 EC50): 1 nM; EC50 ([1]; read-out: CD86 EC50): 2 nM
NC(=O)c1ncc(N2CCCC3(COC3)C2)nc1Nc1ccc(C2CCN(C[C@H]3CCN(c4ccc5c(c4)C(=O)N(C4CCC(=O)NC4=O)C5=O)C3)CC2)cc1 (stereo partly shown) [Compound 126]	7.7	–	–	–	–	–	% BTK Remaining (BTK; [9]): 33%
CN1CCN([C@@H]2CCCN(c3cnc(C(N)=O)c(Nc4ccc(C5CN(CC6CCN(c7ccc8c(=O)n(C9CCC(=O)NC9=O)ccc8c7)CC6)C5)cc4)n3)C2)C1=O (stereo partly shown) [Compound 69]	0.8	–	–	–	–	33	EC50 ([1]; read-out: CD69 EC50): 0.1 nM; EC50 ([1]; read-out: CD86 EC50): 0.3 nM; % BTK Remaining (BTK; oral dose 0.3 mg/kg, 24 h, blood, flow cytometry): 112%; % BTK Remaining (BTK; oral dose 3 mg/kg, 24 h, blood, flow cytometry): 43%; % BTK Remaining (BTK; [9]): 30%; AUC ([2]; 1 mg/kg IV): 0.68 µM·h; clearance ([2]; 1 mg/kg IV): 31.4 mL/min/kg; Vd ([2]; 1 mg/kg IV): 2.2 L/kg; AUC ([2]; 10 mg/kg PO): 0.078 µM·h; bioavailability ([2]; 10 mg/kg PO): 1%

Source: patent US12600732B2, “Bifunctional compounds for degrading BTK via ubiquitin proteosome pathway” (NURIX THERAPEUTICS, INC., priority 2019, dated 2026)
